Test results published in PubChem BioAssay AID324 (DTP/NCI, 2004).
Inconclusive results and toxic doses are left out. Starred links: 1 amine or outer side, 2 acyl side, 3 side chain; linkers in the order of their positions; H or OH if unused. Positions of bridges follow the written chain, without caps; N, C: chain ends. Non-standard residues stand in square brackets, D forms with d. Residues, ends and D or L forms follow the SMILES beside them. Chains are numbered I, II in the order given. Actinocin(9to1) = Cc1c2oc3c(C)ccc(C(=O)[*:1])c3nc-2c(C(=O)[*:2])c(N)c1=O; aThr = C[C@H](O)[C@H](N)C(=O)O; NMeV = CN[C@H](C(=O)O)C(C)C; Sar = CNCC(=O)O

System: CD2F1 mice, AMSA-resistant P388 leukemia ip, median survival T/C
Assay: NCI In Vivo Anticancer Drug Screen. Data for tumor model P388 Leukemia resistant to AMSA; NSC 249992 (intraperitoneal) in CD2F1 (CDF1) mice
Conditions: endpoint: median survival time, higher = longer survival
Method: The antitumor activity of compounds was measured in mice bearing transplantable tumors. Survival or tumor size were measured and the results are expressed as the measurement made in the treated group (T) divided by the measurement made in the vehicle treated control group (C). The tumor model used in this assay is P388 Leukemia resistant to AMSA; NSC 249992 (intraperitoneal) in CD2F1 (CDF1) mice

## Nc1ncn(C2OC(CO)C(O)C2O)c(=O)n1 (centres undefined)
dose: 2.59 mg/kg/injection, schedule: Q04DX003 (ip), vehicle: saline
  T/C: 156 % of control
dose: 4.32 mg/kg/injection, schedule: Q04DX003 (ip), vehicle: saline
  T/C: 200 % of control
dose: 7.2 mg/kg/injection, schedule: Q04DX003 (ip), vehicle: saline
  T/C: 200 % of control
dose: 12.0 mg/kg/injection, schedule: Q04DX003 (ip), vehicle: saline
  T/C: 211 % of control
dose: 20.0 mg/kg/injection, schedule: Q04DX003 (ip), vehicle: saline
  T/C: 276 % of control

## COc1cc2c[n+](C)c3c4cc5c(cc4ccc3c2cc1OC)OCO5
dose: 25.92 mg/kg/injection, schedule: Q04DX003 (ip), vehicle: distilled water + Tween-80
  T/C: 118 % of control
dose: 43.2 mg/kg/injection, schedule: Q04DX003 (ip), vehicle: distilled water + Tween-80
  T/C: 123 % of control
dose: 120.0 mg/kg/injection, schedule: Q04DX003 (ip), vehicle: distilled water + Tween-80
  T/C: 115 % of control

## COc1cc(NS(C)(=O)=O)ccc1Nc1c2ccccc2nc2cc(C(F)(F)F)c(N)cc12
dose: 13.0 mg/kg/injection, schedule: Q04DX003 (ip), vehicle: distilled water + Tween-80
  T/C: 106 % of control
dose: 21.6 mg/kg/injection, schedule: Q04DX003 (ip), vehicle: distilled water + Tween-80
  T/C: 103 % of control
dose: 36.0 mg/kg/injection, schedule: Q04DX003 (ip), vehicle: distilled water + Tween-80
  T/C: 104 % of control
dose: 60.0 mg/kg/injection, schedule: Q04DX003 (ip), vehicle: distilled water + Tween-80
  T/C: 108 % of control
dose: 64.8 mg/kg/injection, schedule: Q04DX002 (ip), vehicle: water
  T/C: 114 % of control
dose: 100.0 mg/kg/injection, schedule: Q04DX003 (ip), vehicle: distilled water + Tween-80
  T/C: 103 % of control

## Cc1c2oc3c(C)ccc(C(=O)N[C@@H]4C(=O)N[C@H](C(C)C)C(=O)N5CCC[C@H]5C(=O)N(C)CC(=O)N(C)[C@@H](C(C)C)C(=O)O[C@H]4C)c3nc-2c(C(=O)N[C@@H]2C(=O)N[C@H](C(C)C)C(=O)N3CCC[C@H]3C(=O)N(C)CC(=O)N(C)[C@@H](C(C)C)C(=O)O[C@H]2C)c(N)c1=O (I: [aThr][dV]P[Sar][NMeV] / II: [aThr][dV]P[Sar][NMeV]; ester I:1-I:C, II:1-II:C; linker I:N-II:N via Actinocin(9to1))
dose: 0.08 mg/kg/injection, schedule: Q04DX003 (ip), vehicle: saline + alcohol
  T/C: 171 % of control
dose: 0.13 mg/kg/injection, schedule: Q04DX003 (ip), vehicle: saline + alcohol
  T/C: 223 % of control
dose: 0.18 mg/kg/injection, schedule: Q04DX003 (ip), vehicle: saline + alcohol
  T/C: 155 % of control
dose: 0.3 mg/kg/injection, schedule: Q04DX003 (ip), vehicle: saline + alcohol
  T/C: 176 % of control
dose: 0.5 mg/kg/injection, schedule: Q04DX003 (ip), vehicle: saline + alcohol
  T/C: 219 % of control

## NCCCCS(=O)(=O)Nc1ccc(Nc2c3ccccc3nc3cc([N+](=O)[O-])ccc23)cc1
dose: 38.9 mg/kg/injection, schedule: Q04DX003 (ip), vehicle: water
  T/C: 93 % of control
dose: 64.8 mg/kg/injection, schedule: Q04DX003 (ip), vehicle: water
  T/C: 93 % of control
dose: 108.0 mg/kg/injection, schedule: Q04DX003 (ip), vehicle: water
  T/C: 95 % of control

## NC(=O)c1csc(C2OC(CO)C(O)C2O)n1 (centres undefined)
dose: 330.0 mg/kg/injection, schedule: Q01DX009 (ip), vehicle: water
  T/C: 188 % of control
dose: 500.0 mg/kg/injection, schedule: Q01DX009 (ip), vehicle: water
  T/C: 88 % of control

## COc1cccc2c1C(=O)c1c(O)c3c(c(O)c1C2=O)C[C@@](O)(C(C)=O)C[C@@H]3OC1CC(N)C(O)C(C)O1 (some centres undefined)
dose: 0.64 mg/kg/injection, schedule: Q04DX003 (ip), vehicle: water
  T/C: 115 % of control
dose: 0.65 mg/kg/injection, schedule: Q04DX003 (ip), vehicle: saline
  T/C: 103 % of control
dose: 0.97 mg/kg/injection, schedule: Q04DX003 (ip), vehicle: saline
  T/C: 121 % of control
dose: 1.08 mg/kg/injection, schedule: Q04DX003 (ip), vehicle: saline
  T/C: 115 % of control
dose: 1.08 mg/kg/injection, schedule: Q04DX003 (ip), vehicle: water
  T/C: 118 % of control
dose: 1.62 mg/kg/injection, schedule: Q04DX003 (ip), vehicle: saline
  T/C: 123 % of control
dose: 1.8 mg/kg/injection, schedule: Q04DX003 (ip), vehicle: saline
  T/C: 124 % of control
dose: 3.0 mg/kg/injection, schedule: Q04DX003 (ip), vehicle: saline
  T/C: 117 % of control
dose: 3.0 mg/kg/injection, schedule: Q04DX003 (ip), vehicle: water
  T/C: 123 % of control
dose: 4.5 mg/kg/injection, schedule: Q04DX003 (ip), vehicle: saline
  T/C: 119 % of control
dose: 5.0 mg/kg/injection, schedule: Q04DX003 (ip), vehicle: water
  T/C: 123 % of control

## O=c1[nH]cc(F)c(=O)[nH]1
dose: 21.6 mg/kg/injection, schedule: Q04DX003 (ip), vehicle: saline
  T/C: 155 % of control
dose: 36.0 mg/kg/injection, schedule: Q04DX003 (ip), vehicle: saline
  T/C: 165 % of control
dose: 60.0 mg/kg/injection, schedule: Q04DX003 (ip), vehicle: saline
  T/C: 168 % of control
dose: 100.0 mg/kg/injection, schedule: Q04DX003 (ip), vehicle: saline
  T/C: 170 % of control

## CN(Cc1cnc2nc(N)nc(N)c2n1)c1ccc(C(=O)N[C@@H](CCC(=O)O)C(=O)O)cc1
dose: 3.0 mg/kg/injection, schedule: Q01DX005 (ip), vehicle: sodium bicarbonate
  T/C: 173 % of control
dose: 3.5 mg/kg/injection, schedule: Q01DX005 (ip), vehicle: sodium bicarbonate
  T/C: 171 % of control
dose: 4.0 mg/kg/injection, schedule: Q01DX005 (ip), vehicle: sodium bicarbonate
  T/C: 164 % of control
dose: 4.5 mg/kg/injection, schedule: Q01DX005 (ip), vehicle: sodium bicarbonate
  T/C: 177 % of control
dose: 6.48 mg/kg/injection, schedule: Q04DX003 (ip), vehicle: sodium bicarbonate
  T/C: 165 % of control
dose: 10.8 mg/kg/injection, schedule: Q04DX003 (ip), vehicle: sodium bicarbonate
  T/C: 180 % of control
dose: 18.0 mg/kg/injection, schedule: Q04DX003 (ip), vehicle: sodium bicarbonate
  T/C: 196 % of control
dose: 30.0 mg/kg/injection, schedule: Q04DX003 (ip), vehicle: sodium bicarbonate
  T/C: 114 % of control
dose: 50.0 mg/kg/injection, schedule: Q04DX003 (ip), vehicle: sodium bicarbonate
  T/C: 98 % of control

## c1ccc2c(NCCCCCCNc3c4ccccc4nc4ccccc34)c3ccccc3nc2c1
dose: 1.94 mg/kg/injection, schedule: Q01DX009 (ip), vehicle: other
  T/C: 123 % of control
dose: 2.59 mg/kg/injection, schedule: Q04DX003 (ip), vehicle: other
  T/C: 123 % of control
dose: 4.32 mg/kg/injection, schedule: Q04DX003 (ip), vehicle: other
  T/C: 110 % of control
dose: 7.2 mg/kg/injection, schedule: Q04DX003 (ip), vehicle: other
  T/C: 94 % of control
dose: 7.78 mg/kg/injection, schedule: Q01DX001 (ip), vehicle: water
  T/C: 93 % of control
dose: 10.0 mg/kg/injection, schedule: Q01DX009 (ip), vehicle: Klucel (hydroxypropylcellulose) (HPC)
  T/C: 150 % of control
dose: 13.0 mg/kg/injection, schedule: Q01DX001 (ip), vehicle: water
  T/C: 98 % of control

## COc1cccc2c1C(=O)c1c(O)c3c(c(O)c1C2=O)C[C@@](O)(C(=O)CO)C[C@@H]3OC1CC(NCc2ccccc2)C(O)C(C)O1 (some centres undefined)
dose: 3.89 mg/kg/injection, schedule: Q04DX003 (ip), vehicle: water
  T/C: 123 % of control
dose: 30.0 mg/kg/injection, schedule: Q04DX003 (ip), vehicle: water
  T/C: 100 % of control

## CC(=O)C1(O)Cc2c(O)c3c(c(O)c2C(OC2CC(N)C(O)C(C)O2)C1)C(=O)c1ccccc1C3=O (centres undefined)
dose: 0.13 mg/kg/injection, schedule: Q04DX003 (ip), vehicle: water
  T/C: 111 % of control
dose: 0.21 mg/kg/injection, schedule: Q04DX003 (ip), vehicle: water
  T/C: 122 % of control
dose: 0.36 mg/kg/injection, schedule: Q04DX003 (ip), vehicle: water
  T/C: 124 % of control
dose: 0.6 mg/kg/injection, schedule: Q04DX003 (ip), vehicle: water
  T/C: 105 % of control

## COc1cccc2c1C(=O)c1c(O)c3c(c(O)c1C2=O)C[C@@](O)(C(C)=O)C[C@@H]3OC1CC(NCc2ccccc2)C(O)C(C)O1 (some centres undefined)
dose: 6.48 mg/kg/injection, schedule: Q04DX003 (ip), vehicle: water
  T/C: 113 % of control
dose: 10.8 mg/kg/injection, schedule: Q04DX003 (ip), vehicle: water
  T/C: 117 % of control
dose: 18.0 mg/kg/injection, schedule: Q04DX003 (ip), vehicle: water
  T/C: 104 % of control
